Reference: patent US8420657B2 (Novartis AG, priority 2008, dated 2013)

Tests used:
[1] = test system: JAK1/JAK2-dependent nuclear translocation of STAT1-GFP in HT1080 fibrosarcoma cells; assay: STAT1 nuclear translocation assay (Cellomics), IFN-γ stimulated HT1080 STAT1-GFP cells; format: cell-based
In short: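 IC50 derived from percent nuclear STAT1-GFP translocation, computed from nuclear minus cytoplasmic GFP intensity against untreated baseline and DMSO-stimulated control. Stable HT1080 STAT1-GFP cells received compound (0.003–10 μM, 0.1% DMSO) 30 min ahead of a 2 h 100 ng/ml IFN-γ stimulus, then fixation and Hoechst nuclear masking.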

GST-JAK2(808-1132) = target: T1, GST-JAK2(808-1132) (Homo sapiens, UniProt O60674); assay: JAK2 kinase assay (Caliper mobility shift, LabChip 3000); format: biochemical
T1 construct: GST-JAK2(808-1132); purchased Invitrogen (Carlsbad, USA) #4288
In short: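 Eight-point compound series (final 10–0.003 μM) tested on purchased GST-JAK2 kinase domain (808-1132). Peptide FITC-JAK3tide plus ATP reacted 60 min, 30 °C, then quenched with EDTA; turnover from charge-based separation of substrate and product.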

[2] = Homo sapiens, HT-1080, STAT1 translocation pathway

T1 sequence (O60674 808-1132): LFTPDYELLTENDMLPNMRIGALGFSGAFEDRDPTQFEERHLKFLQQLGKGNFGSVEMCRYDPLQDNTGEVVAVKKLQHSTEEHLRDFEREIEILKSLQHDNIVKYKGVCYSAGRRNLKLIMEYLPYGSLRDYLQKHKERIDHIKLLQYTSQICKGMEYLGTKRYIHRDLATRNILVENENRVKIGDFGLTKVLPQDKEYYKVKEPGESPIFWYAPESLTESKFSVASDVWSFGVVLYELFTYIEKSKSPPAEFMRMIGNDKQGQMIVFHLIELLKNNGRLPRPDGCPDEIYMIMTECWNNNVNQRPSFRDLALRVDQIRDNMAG

Structure (SMILES) | IC50 [1, 2] | IC50 (GST-JAK2(808-1132)) | IC50 ([1]; STAT1 translocation pathway)
CN1CCN(C(=O)c2ccc(Nc3ncc4ccn(-c5ccc(S(C)(=O)=O)cc5)c4n3)cc2C(F)(F)F)CC1 [Example 72, {4-[7-(4-Methanesulfonyl-phenyl)-7H-pyrrolo[2,3-d]pyrimidin-2-ylamino]-2-trifluoromethyl-phenyl}-(4-methyl-piperazin-1-yl)-methanone] | 750 nM | 3.7 nM | 
Cc1cc(Nc2ncc3ccn(-c4ccc(S(C)(=O)=O)cc4)c3n2)ccc1C(=O)N1CCOCC1 [Example 74, {4-[7-(4-Methanesulfonyl-phenyl)-7H-pyrrolo[2,3-d]pyrimidin-2-ylamino]-2-methyl-phenyl}-morpholin-4-yl-methanone] | 75.5 nM | < 3 nM | 
CC(C)Oc1ccc(Nc2ncc3ccn(-c4cc(F)c(C(=O)N5CCOCC5)c(F)c4)c3n2)cc1 [Example 82, {2,6-Difluoro-4-[2-(4-isopropoxy-phenylamino)-pyrrolo[2,3-d]pyrimidin-7-yl]-phenyl}-morpholin-4-yl-methanone] | 860 nM | 4.1 nM | 
CC(C)Oc1ccc(Nc2ncc3ccn(-c4ccc(C(C)(C)C(=O)N5CCOCC5)cc4)c3n2)cc1 [Example 83, 2-{4-[2-(4-Isopropoxy-phenylamino)-pyrrolo[2,3-d]pyrimidin-7-yl]-phenyl}-2-methyl-1-morpholin-4-yl-propan-1-one] | 460 nM | < 3 nM | 
CC(C)Oc1ccc(Nc2ncc3ccn(-c4ccc(C(=O)N5CCN(C)CC5)c(F)c4)c3n2)cc1 [Example 85, {2-Fluoro-4-[2-(4-isopropoxy-phenylamino)-pyrrolo[2,3-d]pyrimidin-7-yl]-phenyl}-(4-methyl-piperazin-1-yl)-methanone] | 3500 nM | 3.8 nM | 
CS(=O)(=O)c1ccc(-n2ccc3cnc(Nc4ccc(C(=O)N5CCNCC5)cc4)nc32)cc1 [Example 87, {4-[7-(4-Methanesulfonyl-phenyl)-7H-pyrrolo[2,3-d]pyrimidin-2-ylamino]-phenyl}-piperazin-1-yl-methanone] | 18300 nM | 3.8 nM | 
Cc1cc(Nc2ncc3ccn(-c4ccc(C(=O)N5CCN(C)CC5)c(F)c4)c3n2)ccc1F [Example 88, {2-Fluoro-4-[2-(4-fluoro-3-methyl-phenylamino)-pyrrolo[2,3-d]pyrimidin-7-yl]-phenyl}-(4-methyl-piperazin-1-yl)-methanone] | 3270 nM | 8.9 nM | 
Cc1cc(Nc2ncc3ccn(-c4ccc(C(=O)N5CCOCC5)c(C)c4)c3n2)ccc1F [Example 91, {4-[2-(4-Fluoro-3-methyl-phenylamino)-pyrrolo[2,3-d]pyrimidin-7-yl]-2-methyl-phenyl}-morpholin-4-yl-methanone] | 435 nM | < 3 nM | 
Cc1cc(Nc2ncc3ccn(-c4ccc(C(=O)N5CCOCC5)c(F)c4)c3n2)ccc1F [Example 92, {2-Fluoro-4-[2-(4-fluoro-3-methyl-phenylamino)-pyrrolo[2,3-d]pyrimidin-7-yl]-phenyl}-morpholin-4-yl-methanone] | 260 nM | 4.2 nM | 
CN1CCN(C(=O)c2ccc(Nc3ncc4ccn(-c5ccc(S(C)(=O)=O)cc5)c4n3)cc2Cl)CC1 [Example 94, {2-Chloro-4-[7-(4-methanesulfonyl-phenyl)-7H-pyrrolo[2,3-d]pyrimidin-2-ylamino]-phenyl}-(4-methyl-piperazin-1-yl)-methanone] | 259 nM | 3.8 nM | 
CC(C)Oc1ccc(Nc2ncc3ccn(-c4ccc(C(=O)N5CCOCC5)c(F)c4)c3n2)cc1 [Example 98, {2-Fluoro-4-[2-(4-isopropoxy-phenylamino)-pyrrolo[2,3-d]pyrimidin-7-yl]-phenyl}-morpholin-4-yl-methanone] | 575 nM | 5.6 nM | 
CC(C)Oc1ccc(Nc2ncc3ccn(-c4ccc(CC(=O)N5CCN(C)CC5)cc4)c3n2)cc1 [Example 101, 2-{4-[2-(4-Isopropoxy-phenylamino)-pyrrolo[2,3-d]pyrimidin-7-yl]-phenyl}-1-(4-methyl-piperazin-1-yl)-ethanone] | 180 nM | < 3 nM | 

Further lines, results first:

IC50 [1, 2] | IC50 (GST-JAK2(808-1132)) | IC50 ([1]; STAT1 translocation pathway) | Structure (SMILES)
362 nM | 6.8 nM |  | CN1CCN(C(=O)c2ccc(Nc3ncc4ccn(-c5ccc(S(C)(=O)=O)cc5)c4n3)cc2F)CC1 [Example 71, {2-Fluoro-4-[7-(4-methanesulfonyl-phenyl)-7H-pyrrolo[2,3-d]pyrimidin-2-ylamino]-phenyl}-(4-methyl-piperazin-1-yl)-methanone]
80.5 nM | < 3 nM |  | Cc1cc(Nc2ncc3ccn(-c4ccc(S(C)(=O)=O)cc4)c3n2)ccc1C(=O)N1CCN(C)CC1 [Example 73, {4-[7-(4-Methanesulfonyl-phenyl)-7H-pyrrolo[2,3-d]pyrimidin-2-ylamino]-2-methyl-phenyl}-(4-methyl-piperazin-1-yl)-methanone]
82.5 nM | < 3 nM |  | Cc1cc(Nc2ncc3ccn(-c4ccc(S(C)(=O)=O)cc4)c3n2)ccc1C(=O)N1CCCC1 [Example 75, {4-[7-(4-Methanesulfonyl-phenyl)-7H-pyrrolo[2,3-d]pyrimidin-2-ylamino]-2-methyl-phenyl}-pyrrolidin-1-yl-methanone]
934 nM | 38 nM |  | CN1CCN(C(=O)c2cc(Nc3ncc4ccn(-c5ccc(S(C)(=O)=O)cc5)c4n3)ccc2F)CC1 [Example 76, {2-Fluoro-5-[7-(4-methanesulfonyl-phenyl)-7H-pyrrolo[2,3-d]pyrimidin-2-ylamino]-phenyl}-(4-methyl-piperazin-1-yl)-methanone]
2620 nM | 38 nM |  | CS(=O)(=O)c1ccc(-n2ccc3cnc(Nc4ccc(F)c(C(=O)N5CCOCC5)c4)nc32)cc1 [Example 77, {2-Fluoro-5-[7-(4-methanesulfonyl-phenyl)-7H-pyrrolo[2,3-d]pyrimidin-2-ylamino]-phenyl}-morpholin-4-yl-methanone]
545 nM | 29 nM |  | CCN1CCCC1CNC(=O)c1cc(Nc2ncc3ccn(-c4ccc(S(C)(=O)=O)cc4)c3n2)ccc1F (stereo not drawn) [Example 78, N-(1-Ethyl-pyrrolidin-2-ylmethyl)-2-fluoro-5-[7-(4-methanesulfonyl-phenyl)-7H-pyrrolo[2,3-d]pyrimidin-2-ylamino]-benzamide]
257 nM | 4.8 nM |  | CC(=O)c1ccc(Nc2ncc3ccn(-c4ccc(S(C)(=O)=O)cc4)c3n2)cc1 [Example 79, 1-{4-[7-(4-Methanesulfonyl-phenyl)-7H-pyrrolo[2,3-d]pyrimidin-2-ylamino]-phenyl}-ethanone]
10000 nM | 430 nM |  | CS(=O)(=O)c1ccc(-n2ccc3cnc(Nc4ccc(F)c(C(F)(F)F)c4)nc32)cc1 [Example 80, (4-Fluoro-3-trifluoromethyl-phenyl)-[7-(4-methanesulfonyl-phenyl)-7H-pyrrolo[2,3-d]pyrimidin-2-yl]-amine]
2700 nM | 18 nM |  | Cc1cc(Nc2ncc3ccn(-c4ccc(S(C)(=O)=O)cc4)c3n2)ccc1F [Example 81, (4-Fluoro-3-methyl-phenyl)-[7-(4-methanesulfonyl-phenyl)-7H-pyrrolo[2,3-d]pyrimidin-2-yl]-amine]
275 nM | < 3 nM |  | CC(C)Oc1ccc(Nc2ncc3ccn(-c4ccc(C5(C(=O)N6CCOCC6)CC5)cc4)c3n2)cc1 [Example 84, (1-{4-[2-(4-Isopropoxy-phenylamino)-pyrrolo[2,3-d]pyrimidin-7-yl]-phenyl}-cyclopropyl)-morpholin-4-yl-methanone]
13000 nM | 8 nM |  | CC(=O)c1ccc(-n2ccc3cnc(Nc4ccc(OC(C)C)cc4)nc32)cc1 [Example 86, 11-{4-[2-(4-Isopropoxy-phenylamino)-pyrrolo[2,3-d]pyrimidin-7-yl]-phenyl}-ethanone]
 | < 3 nM | 410 nM | Cc1cc(Nc2ncc3ccn(-c4cc(F)c(C(=O)N5CCOCC5)c(F)c4)c3n2)ccc1F [Example 89, {2,6-Difluoro-4-[2-(4-fluoro-3-methyl-phenylamino)-pyrrolo[2,3-d]pyrimidin-7-yl]-phenyl}-morpholin-4-yl-methanone]
715 nM | 3.4 nM |  | Cc1cc(Nc2ncc3ccn(-c4ccc(C(=O)N5CCOCC5)c(Cl)c4)c3n2)ccc1F [Example 90, {2-Chloro-4-[2-(4-fluoro-3-methyl-phenylamino)-pyrrolo[2,3-d]pyrimidin-7-yl]-phenyl}-morpholin-4-yl-methanone]
191 nM | < 3 nM |  | CN1CCN(Cc2cccc(Nc3ncc4ccn(-c5ccc(S(C)(=O)=O)cc5)c4n3)c2)CC1 [Example 93]
2360 nM | 16.5 nM |  | CS(=O)(=O)c1ccc(-n2ccc3cnc(Nc4ccc(C#N)cc4)nc32)cc1 [Example 95, 4-[7-(4-Methanesulfonyl-phenyl)-7H-pyrrolo[2,3-d]pyrimidin-2-ylamino]-benzonitrile]
1460 nM | 9.4 nM |  | CC(C)Oc1ccc(Nc2ncc3ccn(-c4ccc(CN5CCOCC5)c(F)c4)c3n2)cc1 [Example 97, [7-(3-Fluoro-4-morpholin-4-ylmethyl-phenyl)-7H-pyrrolo[2,3-d]pyrimidin-2-yl]-(4-isopropoxy-phenyl)-amine]
555 nM | 3.9 nM |  | CC(C)Oc1ccc(Nc2ncc3ccn(-c4ccc(C(=O)N5CCOCC5)c(Cl)c4)c3n2)cc1 [Example 99, {2-Chloro-4-[2-(4-isopropoxy-phenylamino)-pyrrolo[2,3-d]pyrimidin-7-yl]-phenyl}-morpholin-4-yl-methanone]
510 nM | < 3 nM |  | Cc1cc(-n2ccc3cnc(Nc4ccc(OC(C)C)cc4)nc32)ccc1C(=O)N1CCOCC1 [Example 100, {4-[2-(4-Isopropoxy-phenylamino)-pyrrolo[2,3-d]pyrimidin-7-yl]-2-methyl-phenyl}-morpholin-4-yl-methanone]
